Results published in publication PMC8388771, “Cationic Peptidomimetic Amphiphiles Having a N-Aryl- or N-Naphthyl-1,2,3-Triazole Core Structure Targeting Clostridioides (Clostridium) difficile: Synthesis, Antibacterial Evaluation, and an In Vivo C. difficile Infection Model” (Antibiotics, 2021).
Converted amounts (≈) assume the structure as drawn. Where two headings read alike, the source gives them in different places.

Legend:
S. aureus ATCC 29213 [1] = tested on: S. aureus ATCC 29213; design: method as in ref 30 (1), 31 (2, 4), 19 (3); details: Table 2; ref 30 (1), 31 (2, 4), 19 (3); cited from earlier work
HEK293 cells = tested on: HEK293 cells; design: method as in PMID 30831407; details: Table 2; cited from earlier work
sheep erythrocytes = details: Table 2 HC50 column, footnote i; sheep erythrocytes; cited from earlier work
S. pneumoniae ATCC 49619 [2] = tested on: S. pneumoniae ATCC 49619; design: method as in ref 30 (1), 31 (2, 4), 19 (3); details: Table 2; ref 30 (1), 31 (2, 4), 19 (3); cited from earlier work
E. faecalis ATCC 29212 [3] = tested on: E. faecalis ATCC 29212; design: method as in ref 30 (1), 31 (2, 4), 19 (3); details: Table 2; ref 30 (1), 31 (2, 4), 19 (3); cited from earlier work
C. difficile 132 (RT027) [4] = tested on: C. difficile 132 (RT027); design: method as in PMID 30831407; details: Table 2; cited from earlier work
C. difficile [5] = details: Figure 1; cited from earlier work
E. coli ATCC 25922 [6] = tested on: E. coli ATCC 25922; design: method as in ref 30 (1), 31 (2, 4), 19 (3); details: Table 2; ref 30 (1), 31 (2, 4), 19 (3); cited from earlier work
[7] = design: method as in PMID 30901686; details: cited from earlier work
C. difficile [8] = tested on: C. difficile; design: method as in PMID 30901686; details: murine CDI model; 10% DMSO group 0%; cited from earlier work
S. aureus NCTC 10442 [9] = tested on: S. aureus NCTC 10442; design: method as in ref 31 (2, 4), 19 (3); details: Table 2; MRSA; ref 31 (2, 4), 19 (3); cited from earlier work
S. aureus ATCC 43300 [10] = tested on: S. aureus ATCC 43300; design: method as in PMID 30831407; details: Table 2; MRSA; cited from earlier work
C. albicans ATCC 90028 = assay: CO-ADD MIC assay, C. albicans ATCC 90028; type: cell-based; details: Candida albicans, ATCC90028, Table S1
Outline: (§1)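 Whole-cell growth inhibition (MIC) screening run by CO-ADD. Fluconazole served as antifungal positive control.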

E. coli ATCC 25922 [11] = assay: Primary MIC assay, E. coli ATCC 25922; type: cell-based; details: Escherichia coli, ATCC25922; Table 1; read-out: MIC E. coli ATCC 25922
E. faecalis ATCC 29212 [12] = assay: Primary MIC assay, E. faecalis ATCC 29212; type: cell-based, Enterococcus faecalis; details: Enterococcus faecalis, ATCC29212; Table 1; read-out: MIC E. faecalis ATCC 29212
Outline: (§2)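 Screening is conducted by minimum inhibitory concentration testing according to CLSI aerobic or anaerobic protocols, as appropriate to each strain.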

[13] = tested on: K. pneumoniae ATCC 700603; assay: CO-ADD MIC assay, K. pneumoniae ATCC 700603; type: cell-based; details: Klebsiella pneumoniae, ATCC700603, Table S1, multi-drug resistant
Outline: (§3)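 CO-ADD whole-cell growth-inhibition MIC screening of the peptidomimetics against MRSA and Gram-negative strains.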

S. aureus ATCC 43300 [14] = assay: CO-ADD MIC assay, S. aureus ATCC 43300 (MRSA); type: cell-based; details: Staphylococcus aureus, MRSA, read-out: MIC S. aureus ATCC 43300
Outline: as §3

S. aureus ATCC 29213 [15] = assay: Primary MIC assay, S. aureus ATCC 29213; type: cell-based; details: Staphylococcus aureus, ATCC29213; Table 1; read-out: MIC S. aureus ATCC 29213
Outline: as §2

E. coli ATCC 25922 [16] = assay: CO-ADD MIC assay, E. coli ATCC 25922; type: cell-based; details: Escherichia coli, ATCC25922, Table S1
Outline: as §3

C. difficile [17] = assay: MIC against C. difficile, strain not given; type: cell-based; details: Clostridioides difficile, strains of Table 1
Description: Primary screening (Gram-positive bacteria). Primary MIC assays were performed as described by the Clinical and Laboratory Standards Institute for aerobic and anaerobic bacteria. MIC values for vancomycin were within acceptable QC ranges.

[18] = tested on: Cryptococcus neoformans var. grubii ATCC 208821; assay: CO-ADD MIC assay, C. neoformans var. grubii ATCC 208821; type: cell-based
Outline: as §1

[19] = Cytotoxicity (CC50) assay by CO-ADD; type: cell-based, human; details: human, HEK293 cells (ATCC CRL-1573); Table 1; cytotoxicity on HEK293 cells, tested at ≤32 µg/mL
human erythrocytes = assay: Hemolysis assay, HC50 determination; type: cell-based
Description: Hemolysis assay (human erythrocytes)–HC50 determination. These were performed as described previously.

[20] = tested on: C. difficile strain M7404 (RT027); assay: In vivo murine model of CDI treatment; design: species or system C57BL/6J mice
Description: Disease Treatment Model. These experiments were performed as previously described. Mice were humanely killed at the onset of severe disease or at the end of the experiment (day 4), as previously described.
Statistical Analysis. Statistical analysis was performed using Prism 7 (GraphPad Software). The Kaplan–Meier survival curves were assessed using a log-rank (Mantel–Cox) test. Weight loss, spore shedding, fecal consistency, and physiological appearance data were analyzed by one-way ANOVA with a post hoc Tukey’s multiple comparison test. Differences in data values were considered significant at a p value of <0.05.
Figure 3 C57BL/6J mice (n = 5 per group) were infected with 10^5 spores of C. difficile strain M7404 (RT027). Six hours post-infection and then every 12 h thereafter, mice were administered either 10% DMSO (blue) or 2.5 mg (100 mg/kg in 10% DMSO) of compound 40 (red) by oral gavage. Mice were monitored daily for survival (a) and weight loss relative to day 0, which was the day of infection (b). Fecal spore load at 1-day post-infection was determined by plating (c). Data are presented as CFU/gram feces, with each point representing a single mouse. Mouse cages were scored on day 1 post-infection for appearance (d) and mice were individually assessed for fecal consistency (e) and physiological appearance (f). Data represent the mean ±S.E.M. and statistical significance was assessed using a log-rank (Mantel–Cox) test or one-way ANOVA with a post hoc Tukey’s multiple comparison test. […]
The murine model of CDI was conducted with project collaborators at Monash University. The murine model of CDI was performed by pretreating cohorts of five mice that had been earlier infected via oral gavage with hypervirulent M7404 C. difficile spores. The infection was allowed to develop for 12 h before the trial drug was administered every 12 h for five days. The mice received a single dosage of 2.5 mg of […] (i.e.
100 mg/kg for an average 25 g mouse) administered in a solvent mixture of 10% DMSO and H2O at each 12 h dosing period. The mice body weight was checked every day. If a mouse lost 10% of its body weight in the first 24 h, then the infection was developing, and the mouse was separated from the trial and culled for ethical reasons. The whole survival rate for every drug cohort was utilized to measure effectiveness of that drug.
Other physiological parameters such as cage appearance scores and faecal consistency scores were additional measures for the efficacy of the drug in this murine trial. The experimental data of the in vivo CDI model can be found in Section 3.3.3 and the experimental procedures can be found in Section 6.4.3.
Compound 40 was selected for a murine model of CDI study because of its better antimicrobial potency against C. difficile and its better water solubility profile (Section 3.2.7). Compound 40 was prepared on a larger scale i.e. nearly 300 mg for the purpose of in vivo mouse model of CDI at Monash University. […]
In the secondary CDI mouse model trial, the solution (10% v/v DMSO/H2O) of the compound 40 was ad-ministered to mice by oral gavage.

P. aeruginosa ATCC 27853 = assay: CO-ADD MIC assay, P. aeruginosa ATCC 27853; type: cell-based; details: Pseudomonas aeruginosa, ATCC27853, Table S1
Outline: as §3

C. difficile ATCC 700057 = assay: Primary MIC assay, C. difficile ATCC 700057; type: cell-based, Clostridioides difficile; details: Table 1
Outline: as §2

[21] = Comparative solubility assay (solubility ratio relative to compound 1); type: physicochemical
Text: While the selectivity ratio could be more substantial, this is acceptable for the future development of these gastrointestinal focused compounds. […] These outcomes were confirmed with no issues during the mouse model trials with sufficient solubility in the dosage regimen. Variations on the triazole and O-naphthyl substituents could be made in future studies with the view of enhancing antibacterial activity against C. difficile.

S. pneumoniae ATCC 49619 [22] = assay: Primary MIC assay, S. pneumoniae ATCC 49619; type: cell-based, Streptococcus pneumoniae; details: Streptococcus pneumoniae, ATCC49619; Table 1; read-out: MIC S. pneumoniae ATCC 49619
Outline: as §2

A. baumannii ATCC 19606 = assay: CO-ADD MIC assay, A. baumannii ATCC 19606; type: cell-based; details: Acinetobacter baumannii, ATCC19606, Table S1
Outline: as §3

S. aureus NCTC 10442 [23] = assay: Primary MIC assay, S. aureus NCTC 10442 (MRSA); type: cell-based; details: Staphylococcus aureus, MRSA
Outline: as §2

C. difficile 132 (RT027) [24] = assay: Primary MIC assay, C. difficile 132 (RT027); type: cell-based, Clostridioides difficile; details: Table 1
Outline: as §2

Structure (SMILES): CC(C)CCOc1ccc2ccccc2c1-c1c(OCc2cn(C[C@@H](CCCCN)NC(=O)[C@@H](CCCNC(=N)N)NC(=O)CCc3ccccc3)nn2)ccc2ccccc12 [Compound 2]
- MIC S. aureus ATCC 29213 (S. aureus ATCC 29213 [1]): 4 µg/mL (≈ 4.76 µM)
- CC50 (HEK293 cells): 27.4 µg/mL (≈ 32.6 µM)
- % hemolysis at 50 µg/mL (sheep erythrocytes): 94% ^i
- MIC S. pneumoniae ATCC 49619 (S. pneumoniae ATCC 49619 [2]): 4 µg/mL (≈ 4.76 µM)
- MIC E. faecalis ATCC 29212 (E. faecalis ATCC 29212 [3]): 4 µg/mL (≈ 4.76 µM)
- MIC C. difficile 132 (RT027) (C. difficile 132 (RT027) [4]): 32 µg/mL (≈ 38.1 µM)
- MIC against C. difficile (C. difficile [5]): 8 µg/mL (≈ 9.52 µM)
- MIC E. coli ATCC 25922 (E. coli ATCC 25922 [6]): 8 µg/mL (≈ 9.52 µM)
- appearance in the solubility assay ([7]; Figure 1): homogenous suspension
- SR = solubility ratio relative to that of compound 1 [7]: 3
- survival rate at 24 h (C. difficile [8]): 50%
- MIC S. aureus NCTC 104422 (S. aureus NCTC 10442 [9]): 4 µg/mL (≈ 4.76 µM)
- MIC S. aureus ATCC 43300 (S. aureus ATCC 43300 [10]): 2 µg/mL (≈ 2.38 µM)

Structure (SMILES): CC(C)CCc1cn(-c2c(OCC(=O)N[C@H](CCCCN)C(=O)N[C@H](CCCNC(=N)N)Cn3cc(C4CCCCC4)nn3)ccc3ccccc23)nn1.Cl.Cl [Compound 40, (R)-6-Amino-N-((R)-1-(4-cyclohexyl-1H-1,2,3-triazol-1-yl)-5-guanidinopentan-2-yl)-2-(2-((1-(4-isopentyl-1H-1,2,3-triazol-1-yl)naphthalen-2-yl)oxy)acetamido)hexanamide dihydrochloride]
- MIC (C. albicans ATCC 90028): > 32 µg/mL
- MIC (E. coli ATCC 25922 [11]): 64 µg/mL
- MIC (E. faecalis ATCC 29212 [12]): 32 µg/mL
- MIC [13]: > 32 µg/mL
- MIC (S. aureus ATCC 43300 [14]; Table 2): 8 µg/mL
- MIC (S. aureus ATCC 43300 [14]; Table S1, CO-ADD): 8 µg/mL
- MIC (S. aureus ATCC 29213 [15]): 16 µg/mL
- MIC (E. coli ATCC 25922 [16]): 32 µg/mL
- MIC (C. difficile [17]): 8 µg/mL
- MIC ([18]; Cryptococcus neoformans, ATCC208821, Table S1): 4 to 8 µg/mL
- MIC C. neoformans var. grubii ATCC 208821 ([18]; Table S1): 4 µg/mL
- CC50 [19]: 32 µg/mL
- HC50 (human erythrocytes; Table 1, lysis of human erythrocytes): 32 µg/mL
- HC50 (human erythrocytes; Table 2, footnote says lysis of sheep erythrocytes): 32 µg/mL
- HC50 (human erythrocytes; Table S1, footnote says lysis of sheep erythrocytes): 32 µg/mL
- disease onset compared to mice treated with DMSO ([20]; 100 mg/kg oral gavage): delayed disease onset
- effect on spore numbers shed in the feces ([20]; 1-day post-infection): no effect
- greater survival compared with mice treated with DMSO ([20]; day 1 post-infection): 40%
- individual fecal score vs DMSO group ([20]; day 1 post-infection): no significant difference
- overall cage appearance score compared to DMSO ([20]; day 1 post-infection): lower
- physiological appearance score vs DMSO group ([20]; day 1 post-infection): no significant difference
- survival outcome ([20]; day 2): succumbed to infection by day 2
- survival observed after 24 h ([20]; mice, 100 mg/kg in 10% DMSO by oral gavage every 12 h, DMSO control 40%): 80%
- effect on mouse weight ([20]; weight loss relative to day 0): no effect
- MIC (P. aeruginosa ATCC 27853): 32 µg/mL
- MIC (C. difficile ATCC 700057; Clostridioides difficile, ATCC700057, read-out: MIC C. difficile ATCC 700057): 8 µg/mL
- MIC C. difficile ATCC 700057 (C. difficile ATCC 700057): 8 µg/mL
- relative solubility ratio (relative to compound 1) [21]: 5
- MIC (S. pneumoniae ATCC 49619 [22]): 16 µg/mL
- MIC (A. baumannii ATCC 19606): 32 µg/mL
- MIC (S. aureus NCTC 10442 [23]; MRSA / NCTC 10442 / NCTC 104422, Table 2, read-out: MIC S. aureus NCTC 104422): 16 µg/mL
- MIC (S. aureus NCTC 10442 [23]; Table 1, read-out: MIC S. aureus NCTC 10442): 16 µg/mL
- MIC (C. difficile 132 (RT027) [24]; Clostridioides difficile, read-out: MIC C. difficile 132 (RT027)): 8 µg/mL
- MIC C. difficile 132 (RT027) (C. difficile 132 (RT027) [24]): 8 µg/mL
